From patent US7304061B2, “Heterocyclic inhibitors of ERK2 and uses thereof” (Vertex Pharmaceuticals Incorporated, priority 2002, dated 2007) come the findings set out here.

Structures are written as SMILES.

The target in this experiment is ERK2 (Homo sapiens, UniProt P28482). The experiment in a line: ERK2 inhibition assay (spectrophotometric coupled-enzyme assay). The class given is biochemical. The following applies: activated ERK2 10 nM, 65 μM ATP, 200 μM erktide peptide, 30° C., pH 7.5. As to the method:
Compounds were assayed for the inhibition of ERK2 by a spectrophotometric coupled-enzyme assay (Fox et al (1998) Protein Sci 7, 2249). In this assay, a fixed concentration of activated ERK2 (10 nM) was incubated with various concentrations of the compound in DMSO (2.5%) for 10 min. at 30° C. in 0.1 M HEPES buffer, pH 7.5, containing 10 mM MgCl2, 2.5 mM phosphoenolpyruvate, 200 μM NADH, 150 μg/mL pyruvate kinase, 50 μg/mL lactate dehydrogenase, and 200 μM erktide peptide. The reaction was initiated by the addition of 65 μM ATP. The rate of decrease of absorbance at 340 nm was monitored. The Ki and IC50 were evaluated from the rate data as a function of inhibitor concentration.

Chain of ERK2 (P28482 whole entry, species assumed): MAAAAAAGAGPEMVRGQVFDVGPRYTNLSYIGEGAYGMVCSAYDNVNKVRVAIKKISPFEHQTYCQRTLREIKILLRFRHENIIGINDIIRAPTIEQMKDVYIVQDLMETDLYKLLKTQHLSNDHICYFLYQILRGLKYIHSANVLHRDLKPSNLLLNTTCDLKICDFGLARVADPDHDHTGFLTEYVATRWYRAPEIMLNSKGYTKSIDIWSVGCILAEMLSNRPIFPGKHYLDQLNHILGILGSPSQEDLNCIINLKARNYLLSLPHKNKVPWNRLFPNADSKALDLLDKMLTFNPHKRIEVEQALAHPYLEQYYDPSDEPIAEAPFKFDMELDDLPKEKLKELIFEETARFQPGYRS

A word on the Ki: it is the equilibrium dissociation constant of an inhibitor or competing ligand from its target. Take `CCOc1ncc(C)c(-c2c[nH]c(C(=O)N[C@H](CO)c3ccccc3)c2)n1` [Compound I-22, 4-(5-methyl-2-ethoxy-pyrimidin-4-yl)-1H-pyrrole-2 carboxylic acid (2-hydroxy-1-(S)-phenyl-ethyl)-amide]: the Ki is below 100 nM.

`Cc1cnc(-c2ccccc2)nc1-c1c[nH]c(C(=O)N[C@H](CO)c2ccccc2)c1` [Compound I-24, 4-(5-Methyl-2-phenyl-pyrimidin-4-yl)-1H-pyrrole-2 carboxylic acid (2-hydroxy-1-(S)-phenyl-ethyl)-amide]: the Ki is below 100 nM.
